Values joined by “and” are separate entries in the source; they are usually repeats but may differ in a detail not shown here. Equal entries are not always repeated. Where two headings read alike, the source gives them in different places.
Legend:
[1] = tested on: HIV-1 RT; experiment: Amp-RT assay, AZT-TP and other NRTI-TPs, reference viruses; format: biochemical
[2] = molecular target: HIV-1 RT (Human immunodeficiency virus type 1 group M subtype B, UniProt P04585, M628L/L661V/V693A/T802Y); details: 50 μM; HIV-1RTMDR1/MT-2 (74V/41L/106A/215Y)
Description: (§1) For culture supernatant, 10 μl were used directly in the Amp-RT assay. For plasma testing, a volume of 100 μl was clarified by centrifugation at 10,000 g for five minutes and then ultracentrifuged at a fixed angle at 99,000 g for 1 hour at 4° C. The viral pellet was resuspended in 100 μl of RT buffer (50 mM Tris-HCl, 50 mM KCl, 10 mM MgCl2). Ten microliter aliquots of virus pellets were applied to an RT buffer containing 10 ng of EMCV RNA template, 10 units of RNasin, 0.6% NP-40, 100 ng of the 5′-biotin-labeled EMCR2 antisense primer, 1 nM EGTA, 2 mM dithiothreitol, 50 mM Tris-HCl, 50 mM KCl, 10 mM MgCl2, and 400 uM of each dNTP. Reactions were incubated at 37° C. for 2 hours and then heated at 95° C. for five minutes to destroy RT activity. […] The conditions for PCR were 35 cycles at 95° C. for one minute, 55° C. for one minute, and 72° C. for one minute.
(§2) For quantitation of RT levels, a standard curve was generated by using known RT units from a reference HIV-1 stock (Virology Quality Assurance Laboratory, Rush-Presbyterian-St. Luke's Medical Center, Chicago, Ill.). […] All samples were tested within the linear range of the Amp-RT assay (from 10^−6 to 10^−10 units of RT activity). Samples which had levels of RT activity above the linear range of the assay, were further diluted in RT buffer and retested again. The minimum detectable level of HIV-1 RT activity by the Amp-RT in plasma is 10^−10 units, the equivalent of 1 HIV-1 particle of the reference virus used for quantitation. The results of Amp-RT signals were expressed as units of RT activity per milliliter of plasma and reflect the average of duplicate results.

[3] = tested on: HIV-1 RT
Description: as §1, §2

[4] = molecular target: plasma HIV-1 RT (Human immunodeficiency virus type 1, UniProt P04585); details: 50 μM nevirapine
Description: as §1, §2

[5] = tested on: HIV-1 isolates; details: read-out: IC50 Culture, cited from earlier work
[6] = MNR HIV-1SUM12 (F77L, F116Y, Q151M)
[7] = MNR HIV-1SUM13 (A62V, V75I, F77L, F116Y, Q151M)

Cc1cn([C@H]2C=C[C@@H](COP(=O)(O)OP(=O)(O)OP(=O)(O)O)O2)c(=O)[nH]c1=O [d4T-TP]
IC50 ([1]; MNR HIV-1SUM8 (Q151M)): 320 nM
fold resistance (IC50) as compared to the mean IC values of WT HIV-1 ([1]; MNR HIV-1SUM8 (Q151M)): (9.1) fold
IC50 [1, 6]: 370 nM
fold resistance (IC50) as compared to the mean IC values of WT HIV-1 [1, 6]: (10.6) fold
IC50 [1, 7]: 370 nM
fold resistance (IC50) as compared to the mean IC values of WT HIV-1 [1, 7]: (10.6) fold
IC50 ([1]; WT HIV-1LAI): 15 nM
IC50 ([1]; WT HIV-1SUM9): 55 nM

Nc1ncnc2c1ncn2[C@H]1CC[C@@H](COP(=O)(O)OP(=O)(O)OP(=O)(O)O)O1 [ddA-TP]
IC50 ([1]; MNR HIV-1SUM8 (Q151M)): 1200 nM
fold resistance (IC50) as compared to the mean IC values of WT HIV-1 ([1]; MNR HIV-1SUM8 (Q151M)): (6.5) fold
IC50 [1, 6]: 1100 nM
fold resistance (IC50) as compared to the mean IC values of WT HIV-1 [1, 6]: (5.9) fold
IC50 [1, 7]: 6000 nM
fold resistance (IC50) as compared to the mean IC values of WT HIV-1 [1, 7]: (32.4) fold
IC50 ([1]; WT HIV-1SUM9): 270 nM
IC50 ([1]; WT HIV-1xxBRUpitt): 100 nM

Nc1ccn([C@H]2CC[C@@H](COP(=O)(O)OP(=O)(O)OP(=O)(O)O)O2)c(=O)n1 [ddC-TP, ddC-triphosphate]
IC50 ([1]; MNR HIV-1SUM8 (Q151M)): 1800 nM
fold resistance (IC50) as compared to the mean IC values of WT HIV-1 ([1]; MNR HIV-1SUM8 (Q151M)): (3.6) fold
IC50 [1, 6]: 6000 nM
fold resistance (IC50) as compared to the mean IC values of WT HIV-1 [1, 6]: (12) fold
IC50 [1, 7]: 7500 nM
fold resistance (IC50) as compared to the mean IC values of WT HIV-1 [1, 7]: (15) fold
IC50 ([1]; WT HIV-1LAI): 500 nM
IC50 ([1]; WT HIV-1SUM9): 500 nM

Cc1ccnc2c1NC(=O)c1cccnc1N2C1CC1 [nevirapine]
Inhibition of RT by Nevirapine [2]: partially inhibited
inhibition of RT ([3]; 50 μM nevirapine, isolate W786-6, 8.3×10^−9 units of RT activity): no significant inhibition
Inhibition of RT. (%) ([3]; 50 μM nevirapine, isolate W786-6, input 5.6 × 10^−8 units): 0%
Inhibition of RT. (%) ([3]; 50 μM nevirapine, isolate X267-1, input 6.9 × 10^−9 units): complete inhibition and 100%
Inhibition of RT. (%) ([3]; 50 μM nevirapine, isolate X267-1, input 7.1 × 10^−7 units): 98.6%
Inhibition of RT. (%) ([3]; 50 μM nevirapine, isolate X267-1, input 7.1 × 10^−7 units, listed as Nevirapine): 98.7%
Inhibition of RT. (%) ([3]; 50 μM nevirapine, isolate X267-1, input 7.2 × 10^−8 units): complete inhibition and 100%
Inhibition of RT. (%) ([3]; 50 μM nevirapine, isolate X403-4, input 4.4 × 10^−7 units): 16%
inhibition of RT ([3]; 50 μM nevirapine, isolates X403-4 and W786-6, high or low input of RT): no significant inhibition
Inhibition of RT. (%) ([3]; 50 μM nevirapine, line under isolate X403-4, input 4.1 × 10^−7 units): 0%
Inhibition of RT. (%) ([3]; 50 μM nevirapine, line under isolate X403-4, input 8.2 × 10^−9 units): 0%
RT inhibition ([3]; 50 μM nevirapine, mixture 10% resistant (W786-6) and 90% sensitive (X267-1) viruses): 94%
RT inhibition ([3]; 50 μM nevirapine, mixture containing 25% resistant viruses): 80%
RT inhibition ([3]; 50 μM nevirapine, mixture containing 75% resistant viruses): 29%
inhibition of RT activity ([3]; 50 μM nevirapine, resistant isolates): little or no inhibition
RT inhibition ([3]; 50 μM nevirapine, sensitive isolate X267-1 alone): > 99%
Inhibition of RT by Nevirapine ([3]; 50 μM, HIV-1RTMC/MT-2 (67N/70R/215F/219Q), AZT-resistant): 91.8%
Inhibition of RT by Nevirapine ([3]; 50 μM, HIV-1RTMDR1/MT-2 (74V/41L/106A/215Y)): 43%
Inhibition of RT by Nevirapine ([3]; 50 μM, L6KL5 (103N/75I/77L/116Y/151M)): 7%
Inhibition of RT by Nevirapine ([3]; 50 μM, L6KL5 (103N/75I/77L/116Y/151M), listed as Nevirapine): 0%
Inhibition of RT by Nevirapine ([3]; 50 μM, M184V/Y181CEU (184V/181C)): 0%
Inhibition of RT by Nevirapine ([3]; 50 μM, M184Vpitt (184V), 3TC-resistant): 98.8%
Inhibition of RT by Nevirapine ([3]; 50 μM, N119 (181C)): 0%
Inhibition of RT by Nevirapine ([3]; 50 μM, N119 (181C), listed as Nevirapine): 7%
susceptibility to nevirapine ([3]; 50 μM, viruses containing mutations associated with AZT or 3TC resistance): susceptible
Units of RT activity With 50 μM Nevirapine ([3]; isolate W786-6, 5.6 × 10^−8 without nevirapine): 7.7 × 10^−8 Units of RT activity
Units of RT activity With 50 μM Nevirapine ([3]; isolate X267-1, 7.1 × 10^−7 without nevirapine): 9.1 × 10^−9 Units of RT activity
Units of RT activity With 50 μM Nevirapine ([3]; isolate X403-4, 4.4 × 10^−7 without nevirapine): 3.7 × 10^−7 Units of RT activity
Units of RT activity With 50 μM Nevirapine ([3]; line under isolate X403-4, 4.1 × 10^−7 without nevirapine): 5.0 × 10^−7 Units of RT activity
Units of RT activity With 50 μM Nevirapine ([3]; line under isolate X403-4, 8.2 × 10^−9 without nevirapine): 8.4 × 10^−9 Units of RT activity
RT inhibition ([4]; patient N06, after 7 days of treatment): 100%
RT inhibition ([4]; patient N07, day 7 of treatment): 24%
RT inhibition ([4]; patient N12, after 7 days of treatment): 94%
RT inhibition ([4]; patient N12, day 14 of treatment): 32%
mean RT inhibition ([4]; samples after more than two weeks of treatment): 13.82%
mean RT inhibition ([4]; samples collected before therapy (n=7)): 99.3%
mean RT inhibition ([4]; samples of the first six days of treatment (n=14)): 98.2%
IC50 ([5]; isolate S469-2/M3 (Y188L)): 100000 nM
IC50 ([5]; isolate X165-6 (no mutations)): 70 nM
IC50 ([5]; isolate X267-1 (no mutations)): 40 nM
